Data reported in patent publication US8735414B2 (priority 2009, dated 2014).

What was measured:
[1] = tested on: bicistronic HCV replicon (replicon RNA, GenBank Accession No. AJ242654); assay: HCV Replicon Assay; type: cell-based; details: Hepatitis C virus, 72 h, read-out: Replicon IC50

| Structure (SMILES) | melting point [°C] | IC50 [1] [nM] |
| --- | --- | --- |
| N#Cc1c(-c2ccc(S(=O)(=O)NC(CF)CF)cn2)n(C2CCCC2)c2cc(F)ccc12 [compound 307, 6-(3-cyano-1-cyclopentyl-6-fluoro-1H-indol-2-yl)-N-(1,3-difluoropropan-2-yl)pyridine-3-sulfonamide] | 166 to 168 | < 500 |
| CCc1cc2c(cc1F)c(C(N)=O)c(-c1ccc(S(=O)(=O)N[C@@H](C)C(F)(F)F)cn1)n2-c1cccc(F)n1 [compound 995, 6-ethyl-5-fluoro-1-(6-fluoropyridin-2-yl)-2-(5-{[(2S)-1,1,1-trifluoropropan-2-yl]sulfamoyl}pyridin-2-yl)-1H-indole-3-carboxamide] | 230 to 233 | < 500 |
| N#Cc1c(-c2ncc(S(=O)(=O)NC(CF)CF)cn2)n(CC2CC2)c2cc(CC(F)F)ccc12 [compound 621, 2-[3-cyano-1-(cyclopropylmethyl)-6-(2,2-difluoroethyl)-1H-indol-2-yl]-N-(1,3-difluoropropan-2-yl)pyrimidine-5-sulfonamide] | 180 to 188 | < 500 |
| Cc1cc2c(cc1F)c(C#N)c(-c1ccc(S(=O)(=O)N[C@@H](C)C(F)(F)F)cn1)n2-c1cncc(F)c1 [compound 945, 6-[3-cyano-5-fluoro-1-(5-fluoropyridin-3-yl)-6-methyl-1H-indol-2-yl]-N-[(2S)-1,1,1-trifluoropropan-2-yl]pyridine-3-sulfonamide] | 199 to 204 | < 500 |
| CCc1cc2c(cc1F)c(C#N)c(-c1cc(C)c(S(=O)(=O)N[C@@H](C)C(F)(F)F)cn1)n2-c1ccccn1 [compound 852, 6-[3-cyano-6-ethyl-5-fluoro-1-(pyridin-2-yl)-1H-indol-2-yl]-4-methyl-N-[(2S)-1,1,1-trifluoropropan-2-yl]pyridine-3-sulfonamide] | 178 to 183 | < 500 |
| CCc1cc2c(cc1F)c(C(N)=O)c(-c1ccc(NS(=O)(=O)C(C)(C)C)nc1)n2[C@H](C)C1CC1 [compound 1104, 2-{6-[(tert-butylsulfonyl)amino]pyridin-3-yl}-1-[(1R)-1-cyclopropylethyl]-6-ethyl-5-fluoro-1H-indole-3-carboxamide] | 255.5 to 259 | < 500 |
| C[C@H](NS(=O)(=O)c1ccc(-c2c(C#N)c3ccc(OC(F)(F)F)cc3n2C2CCCC2)nc1)C(F)(F)F [compound 358, 6-[3-cyano-1-cyclopentyl-6-(trifluoromethoxy)-1H-indol-2-yl]-N-[(2S)-1,1,1-trifluoropropan-2-yl]pyridine-3-sulfonamide] | 168 to 170 | < 500 |
| C[C@H](NS(=O)(=O)c1ccc(-c2c(C#N)c3cc(F)c(Br)cc3n2-c2ncccn2)nc1)C(F)(F)F [compound 895, 6-[6-bromo-3-cyano-5-fluoro-1-(pyrimidin-2-yl)-1H-indol-2-yl]-N-[(2S)-1,1,1-trifluoropropan-2-yl]pyridine-3-sulfonamide] | 224 to 226 | < 500 |
| Cc1cc2c(C#N)c(-c3ccc(S(=O)(=O)N[C@@H](C)C(F)(F)F)cn3)n(C3CCC3)c2cc1F [compound 492, 6-(3-cyano-1-cyclobutyl-6-fluoro-5-methyl-1H-indol-2-yl)-N-[(2S)-1,1,1-trifluoropropan-2-yl]pyridine-3-sulfonamide] | 185 to 190 | < 500 |
| CCc1ccc2c(c1)c(C#N)c(-c1ccc(S(=O)(=O)NC(CF)CF)cn1)n2C1CCC1 [compound 258, 6-(3-cyano-1-cyclobutyl-5-ethyl-1H-indol-2-yl)-N-(1,3-difluoropropan-2-yl)pyridine-3-sulfonamide] | 163 to 164 | < 500 |
| Cc1ccc2c(c1)c(C#N)c(-c1ncc(S(=O)(=O)N[C@@H](C)C(F)(F)F)cn1)n2C(C)C [compound 566, 2-[3-cyano-5-methyl-1-(propan-2-yl)-1H-indol-2-yl]-N-[(2S)-1,1,1-trifluoropropan-2-yl]pyrimidine-5-sulfonamide] | 195 to 198 | 500 to 2000 |
| Cc1cc2c(cc1F)c(C(=O)O)c(-c1ccc(S(=O)(=O)N[C@@H](C)C(F)(F)F)cn1)n2C1CCC1 [compound 793, 1-cyclobutyl-5-fluoro-6-methyl-2-(5-{[(2S)-1,1,1-trifluoropropan-2-yl]sulfamoyl}pyridin-2-yl)-1H-indole-3-carboxylic acid] | 234 to 240 | < 500 |
| N#Cc1c(-c2ccc(S(=O)(=O)NC3(C(F)(F)F)CC3)cn2)n(-c2ccc(F)cc2)c2cc(OC(F)F)ccc12 [compound 664, 6-[3-cyano-6-(difluoromethoxy)-1-(4-fluorophenyl)-1H-indol-2-yl]-N-[1-(trifluoromethyl)cyclopropyl]pyridine-3-sulfonamide] | 195 to 198 | < 500 |
| CCCn1c(-c2ncc(S(=O)(=O)NC(CF)CF)cn2)c(C#N)c2ccc(OC(F)F)cc21 [compound 232, 2-[3-cyano-6-(difluoromethoxy)-1-propyl-1H-indol-2-yl]-N-(1,3-difluoropropan-2-yl)pyrimidine-5-sulfonamide] | 177 to 179 | < 500 |
| C[C@H](NS(=O)(=O)c1ccc(-c2c(C#N)c3cc(Cl)ccc3n2-c2ccccn2)nc1)C1CC1 [compound 490, 6-[5-chloro-3-cyano-1-(pyridin-2-yl)-1H-indol-2-yl]-N-[(1S)-1-cyclopropylethyl]pyridine-3-sulfonamide] | 136 to 139 | 2000 to 5000 |
| Cc1cc2c(cc1F)c(C#N)c(-c1ccc(S(=O)(=O)N[C@@H](C)C(F)(F)F)c(C)n1)n2C1CCCC1 [compound 868, 6-(3-cyano-1-cyclopentyl-5-fluoro-6-methyl-1H-indol-2-yl)-2-methyl-N-[(2S)-1,1,1-trifluoropropan-2-yl]pyridine-3-sulfonamide] | 206 to 211 | < 500 |
| CC(C)NS(=O)(=O)c1cnc(-c2c(C#N)c3ccc(C4CC4)cc3n2C2CCC2)nc1 [compound 71, 2-(3-cyano-1-cyclobutyl-6-cyclopropyl-1H-indol-2-yl)-N-(propan-2-yl)pyrimidine-5-sulfonamide] | 192 to 193 | < 500 |
| C[C@H](NS(=O)(=O)c1ccc(-c2c(C#N)c3cc(O)c(OC(F)F)cc3n2C2CCC2)nc1)C(F)(F)F [compound 674, 6-[3-cyano-1-cyclobutyl-6-(difluoromethoxy)-5-hydroxy-1H-indol-2-yl]-N-[(2S)-1,1,1-trifluoropropan-2-yl]pyridine-3-sulfonamide] | 174 to 177 | < 500 |
| Cc1cc2c(cc1F)c(C(N)=O)c(-c1ccc(S(=O)(=O)N[C@@H](C)C(F)(F)F)cn1)n2-c1cccnc1 [compound 913, 5-fluoro-6-methyl-1-(pyridin-3-yl)-2-(5-{[(2S)-1,1,1-trifluoropropan-2-yl]sulfamoyl}pyridin-2-yl)-1H-indole-3-carboxamide] | 223 to 227 | < 500 |
| C[C@H](NS(=O)(=O)c1cnc(-c2c(C#N)c3cc(F)ccc3n2C2CCCCC2)nc1)C1CC1 [compound 528, 2-(3-cyano-1-cyclohexyl-5-fluoro-1H-indol-2-yl)-N-[(1S)-1-cyclopropylethyl]pyrimidine-5-sulfonamide] | 219 to 221 | < 500 |
